The term Ki denotes the dissociation constant of the complex between target and ligand, obtained from inhibition or displacement. Higher therefore signals a looser hold on the target.

In the test the target is T1, Alpha-1A adrenergic receptor (Homo sapiens, UniProt P35348).
T1 sequence (P35348 whole entry): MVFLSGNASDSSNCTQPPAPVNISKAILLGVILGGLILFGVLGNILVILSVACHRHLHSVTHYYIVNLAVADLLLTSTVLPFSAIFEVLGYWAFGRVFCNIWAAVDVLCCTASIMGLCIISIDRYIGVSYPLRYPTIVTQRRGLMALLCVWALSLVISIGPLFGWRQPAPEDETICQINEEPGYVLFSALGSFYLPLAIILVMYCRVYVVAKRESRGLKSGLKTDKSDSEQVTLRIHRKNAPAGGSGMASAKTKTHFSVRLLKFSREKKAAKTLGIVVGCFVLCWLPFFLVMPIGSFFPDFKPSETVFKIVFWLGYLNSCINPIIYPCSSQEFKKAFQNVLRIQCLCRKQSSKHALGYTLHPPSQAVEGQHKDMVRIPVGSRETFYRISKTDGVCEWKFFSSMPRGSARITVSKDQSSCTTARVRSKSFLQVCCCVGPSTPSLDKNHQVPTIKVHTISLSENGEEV
The test can be described thus: Binding affinity to Homo sapiens (human) alpha1A adrenergic receptor.
`COC(=O)C1=C(C)NC(C)=C(C(=O)NCCCN2CCC(C(=O)OC)(c3ccccc3)CC2)C1c1ccc([N+](=O)[O-])cc1` (stereo unspecified): the Ki is 3.55 nM.
With `COC(=O)C1(c2ccccc2)CCN(CCCNC(=O)C2=C(C)NC(C)=C(C(=O)OCCO)C2c2ccc([N+](=O)[O-])cc2)CC1` (stereo unspecified) the figure was 3.63 nM; with `COC(=O)C1=C(C)NC(C)=C(C(=O)NCCCCN2CCC(c3ccccc3)(c3ccccc3)CC2)C1c1ccc([N+](=O)[O-])cc1` (racemic), 14.8 nM; with `COC(=O)C1=C(C)NC(C)=C(C(=O)NCCCN2CCC(c3ccccc3)CC2)C1c1ccc([N+](=O)[O-])cc1` (racemic), 0.229 nM.
The molecule `COC(=O)C1=C(C)NC(C)=C(C(=O)NCCCN2CCC(c3ccccc3)(c3ccccc3)CC2)C1c1ccc(C)cc1` (racemic) showed a Ki of 1.38 nM.
With `COC(=O)C1=C(C)NC(C)=C(C(=O)NCCCN2CCC(c3ccccc3)CC2)C1c1ccc(Cl)c([N+](=O)[O-])c1` (racemic) the figure was 0.525 nM.

The values above are taken from ChEMBL document CHEMBL3045488, “3D-QSAR STUDIES ON SUBSTITUTED DIHYDROPYRIDINES FOR THEIR 1A-ADRENERGIC RECEPTOR BINDING AFFINITY” (Med Chem Res, 2004).
